Assay results published in patent publication US20190062260A1, “ANTIMICROBIAL COMPOSITIONS, METHODS OF MAKING, AND METHODS OF USE” (priority 2017, published 2019).

Experiment: Degradation of compound and release of acrolein, tracked via NMR spectroscopy
Type: physicochemical
Conditions: 50 mM in deuterated water; for % acrolein generated pH 3, 3 days / % degraded pH 3, 3 days: pH 3 (adjusted with deuterium chloride); for % acrolein generated pH 3, 3 days / % degraded pH 3, 3 days / % acrolein generated pH 7, 7 days / % degraded pH 7, 7 days: 25 degrees Celsius
Procedure: Degradation of Compound and Release of Acrolein
n=3, X as defined in the table. Measured at 25 degrees Celsius (room temperature), tracked via NMR spectroscopy. All compounds were prepared at 50 mM in deuterated water, pH adjusted with deuterium chloride.
n=3, X is Br. Measured at 25 or 70 degrees Celsius, tracked via NMR spectroscopy. All compounds were prepared at 50 mM in deuterated water at pH 7. Measurements were made after 4 hours.

Row | Compound | % acrolein generated pH 3, 3 days [%] | % degraded pH 3, 3 days [%] | % acrolein generated pH 7, 7 days [%] | % degraded pH 7, 7 days [%] | % acrolein generated 25° C. (25° C., pH 7, after 4 hours) [%] | % degraded 25° C. (25° C., pH 7, after 4 hours) [%] | % acrolein generated 70° C. (70° C., pH 7, after 4 hours) [%] | % degraded 70° C. (70° C., pH 7, after 4 hours) [%]
1 | COCCOCCOCCOC(CCCl)OCCOCCOCCOC [Compound 1] | 1 | 50 | 0 | 0 |  |  |  | 
2 | COCCOCCOCCOC(CCBr)OCCOCCOCCOC [Compound 3] | 8 | 100 | 12 | 95 | 0 | 0 | 40 | 85
